# Source: patent EP1900728A1 (Genecare Research Institute Co., Ltd, priority 2005, dated 2006)
# Molecular target: T1, IκBα ubiquitinating enzyme (SCF complex: ROC1, Cullin1, Skp1, His-TrCP1; with E1, UbcH5b) (Homo sapiens, UniProt P62877+P63208+Q13616+Q9Y297)
# T1 construct: His (polyhistidine); made in house; host or cells: insect cells (baculovirus) for the SCF complex and His-E1; E. coli for His-UBCH5b
# Assay: Measurement of ubiquitinating enzyme activity (IκBα ubiquitination, time-resolved fluorescence with Eu(K)-labeled ubiquitin and XL665-labeled anti-GST antibody)
# Assay type: biochemical
# Conditions: enzyme activity inhibition test, method (1), Table 5; read-out: EVALUATION
# Method: Method 1: Measurement of ubiquitinating enzyme activity
# A recombinant vector His-UBCH5b containing a polyhistidine tag (His) and UBCH5b was prepared. E. coli was transformed with the vector, the protein was expressed, and affinity purification was carried out using Ni-NTA agarose (Qiagen). Four types of recombinant baculoviruses (ROC1, Cullin1, Skp1, and His-TrCP1) were prepared for the SCF complex protein, insect cells were infected in quadruplicate for expression, and affinity purification was carried out using Ni-NTA agarose. Recombinant baculoviruses His-IKKβ, His-E1 were prepared. The insect cells were infected with each of those for expression, and affinity purification was carried out using Ni-NTA agarose. A recombinant vector GST-IκBα was prepared by fusing glutathione-S-transferase tag (GST) and IκBα, E. coli was transformed with the vector for the protein expression, and affinity purification was carried out using glutathione sepharose (Amersham Biosciences). Genetic transformants were prepared by PCR amplification followed by recombination, all of which were based on published human-derived sequences.
# Phosphorylation reaction of IκBα was performed by incubating the above-mentioned assay buffer (50 mM Tris-HCl (pH7.4), 2 mM ATP, 5 mM MgCl2, 0.5 mM DTT, 0.1% BSA) containing IκBα and IKKβ at room temperature for 1 hour. Ubiquitination reactions were carried out as follows. Compound samples at various concentrations, ubiquitin, Eu (K)-labeled ubiquitin, E1, UbcH5b, and SCF complex were added to phosphorylated IκBα, and then this was incubated at room temperature for 30 minutes. The reaction was terminated by adding EDTA, the above-mentioned revelation buffer (100 mM phosphate buffer (pH7.0), 0.5 M KF, 0.1% BSA) containing XL665-labeled anti-GST antibody was added and this was left to stand at room temperature for 2 hours. Measurements were made using ARVO-HTS (Perkin Elmer). The ratio of fluorescence intensities at 620 nm and 665 nm (Em 665 nm/Em 620 nm x 10,000) with excitation light at 337 nm was measured.
# The ubiquitination level without the addition of a compound sample was used as the control value, and the level in the absence of SCF complex was used as the blank value for the assays. Inhibitory activities of the compounds were indicated as % inhibition = 100 - (value with a compound sample added - blank value) / (control value - blank value) x 100. IC50 was indicated as the concentration of the compound showing 50% inhibition. Eu (K)-labeled ubiquitin, XL665-labeled anti-GST antibody, and XL665-labeled anti-His antibody were purchased from CIS bio international. Costar solid black plates (96 wells) were used for the assays.
# T1 sequence (Q9Y297 whole entry): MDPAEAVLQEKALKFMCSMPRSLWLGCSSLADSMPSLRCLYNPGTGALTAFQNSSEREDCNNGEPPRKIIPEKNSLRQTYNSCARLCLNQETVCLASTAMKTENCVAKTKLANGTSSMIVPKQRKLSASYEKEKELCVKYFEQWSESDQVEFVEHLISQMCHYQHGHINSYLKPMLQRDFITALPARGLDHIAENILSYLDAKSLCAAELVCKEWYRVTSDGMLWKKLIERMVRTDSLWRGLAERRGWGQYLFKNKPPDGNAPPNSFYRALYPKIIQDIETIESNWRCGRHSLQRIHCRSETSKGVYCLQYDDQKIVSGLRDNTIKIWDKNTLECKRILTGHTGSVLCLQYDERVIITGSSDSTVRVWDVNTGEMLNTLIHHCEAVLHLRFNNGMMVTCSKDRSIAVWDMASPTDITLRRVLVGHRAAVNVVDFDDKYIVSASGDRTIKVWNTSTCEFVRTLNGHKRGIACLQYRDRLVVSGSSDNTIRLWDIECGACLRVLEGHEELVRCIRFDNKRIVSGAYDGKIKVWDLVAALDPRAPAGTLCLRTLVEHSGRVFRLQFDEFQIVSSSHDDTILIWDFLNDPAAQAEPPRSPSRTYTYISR
# T1 sequence (Q13616 whole entry): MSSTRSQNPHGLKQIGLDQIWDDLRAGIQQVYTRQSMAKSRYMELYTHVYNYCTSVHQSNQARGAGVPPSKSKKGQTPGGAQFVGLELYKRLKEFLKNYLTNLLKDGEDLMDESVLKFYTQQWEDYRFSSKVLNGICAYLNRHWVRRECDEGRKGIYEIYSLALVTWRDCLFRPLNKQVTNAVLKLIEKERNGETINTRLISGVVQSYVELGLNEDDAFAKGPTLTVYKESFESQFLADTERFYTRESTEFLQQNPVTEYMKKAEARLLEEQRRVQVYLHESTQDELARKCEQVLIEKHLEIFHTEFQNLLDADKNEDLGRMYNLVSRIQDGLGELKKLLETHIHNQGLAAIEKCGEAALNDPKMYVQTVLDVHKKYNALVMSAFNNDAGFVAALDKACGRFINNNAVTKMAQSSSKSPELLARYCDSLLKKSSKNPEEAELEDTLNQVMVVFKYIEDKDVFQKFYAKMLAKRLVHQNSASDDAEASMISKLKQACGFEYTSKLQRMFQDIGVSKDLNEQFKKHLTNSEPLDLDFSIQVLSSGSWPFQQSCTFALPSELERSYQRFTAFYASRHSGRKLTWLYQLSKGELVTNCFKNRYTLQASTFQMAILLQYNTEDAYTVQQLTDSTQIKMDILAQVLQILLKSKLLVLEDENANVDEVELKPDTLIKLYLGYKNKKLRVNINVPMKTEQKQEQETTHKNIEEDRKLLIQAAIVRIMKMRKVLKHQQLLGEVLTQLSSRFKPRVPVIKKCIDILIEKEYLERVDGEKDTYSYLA
# T1 sequence (P63208 whole entry): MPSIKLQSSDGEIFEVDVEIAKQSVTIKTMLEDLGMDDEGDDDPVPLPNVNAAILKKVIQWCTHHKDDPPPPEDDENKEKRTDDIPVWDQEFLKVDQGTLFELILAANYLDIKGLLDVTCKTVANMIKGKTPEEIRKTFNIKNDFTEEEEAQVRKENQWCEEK
# T1 sequence (P62877 whole entry): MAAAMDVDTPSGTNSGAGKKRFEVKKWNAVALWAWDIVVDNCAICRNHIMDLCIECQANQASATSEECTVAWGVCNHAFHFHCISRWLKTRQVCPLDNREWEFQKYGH
row,IC50,Structure (SMILES)
1,10 to 20 µM,COc1cc(/C=C2\C(=O)N(c3ccc(C(=O)O)cc3)N=C2c2cccnc2)ccc1O [Compound 337]
2,< 10 µM,CC1=NN(c2cccc(C(=O)O)c2)C(=O)/C1=C\c1ccc(N2CCNCC2)cc1 [Compound 452]
3,< 40 µM,COc1ccc(C2=NN(c3ccc(C(=O)O)cc3)C(=O)C2=Cc2ccc(-n3cncn3)cc2)cc1OC [Compound 343]
4,< 10 µM,CC1=NN(c2cccc(C(=O)O)c2)C(=O)/C1=C\c1cccc2[nH]ccc12 [Compound 355]
5,< 10 µM,CC1=NN(c2ccc(C(=O)N3CCOCC3)cc2)C(=O)/C1=C\c1ccc2[nH]ccc2c1 [Compound 357]
6,< 10 µM,CC1=NN(c2cccc(C(=O)O)c2)C(=O)/C1=C\c1ccc(N2CCN(C(=O)c3ccoc3)CC2)cc1 [Compound 444]
7,< 10 µM,CC1=NN(c2cccc(C(=O)O)c2)C(=O)/C1=C\c1ccc(N2CCN(S(C)(=O)=O)CC2)cc1 [Compound 447]
8,< 10 µM,O=C(O)c1ccc(N2N=C(c3ccoc3)/C(=C/c3ccc4c(c3)OCO4)C2=O)cc1 [Compound 476]
9,10 to 20 µM,CC1=NN(c2ccc(C(=O)O)cc2)C(=O)/C1=C\c1ccc(S(=O)(=O)O)o1 [Compound 525]
10,< 40 µM,CC1=NN(c2cccc(C(=O)N3CCC(CO)CC3)c2)C(=O)/C1=C\c1ccc2c(c1)OCCO2 [Compound 383]
11,< 10 µM,COCC1=NN(c2ccc(C(=O)O)cc2)C(=O)/C1=C\c1cccc2nccnc12 [Compound 327]
12,10 to 20 µM,CCCNC(=O)COc1ccc(/C=C2\C(=O)N(c3ccc(C(=O)O)cc3)N=C2C)cc1 [Compound 534]
13,< 10 µM,CC1=NN(c2cccc(C(=O)O)c2)C(=O)/C1=C\c1ccc(N2CCC(C(=O)O)CC2)cc1 [Compound 424]
14,< 40 µM,CC1=NN(c2cccc(C(=O)NCC3CC3)c2)C(=O)/C1=C\c1ccc2c(c1)OCCO2 [Compound 404]
15,< 10 µM,O=C(O)c1ccc(N2N=C(C3CC3)/C(=C/c3ccc(-n4ccnc4)cc3)C2=O)cc1 [Compound 318]
16,10 to 20 µM,CC1=NN(c2cccc(C(=O)O)c2)C(=O)/C1=C\c1ccc(N2CCCC2CO)cc1 (centres unmarked) [Compound 422]
17,< 40 µM,CC(=O)OCc1ccc(/C=C2\C(=O)N(c3ccc(C(=O)O)cc3)N=C2C)o1 [Compound 524]
18,10 to 20 µM,CCCCC1=NN(c2cccc(C(=O)O)c2)C(=O)/C1=C\c1ccc2c(c1)OCCO2 [Compound 470]
19,10 to 20 µM,O=C(O)c1ccc(N2N=C(c3cccnc3)/C(=C/c3ccc4c(c3)OCCO4)C2=O)cc1 [Compound 310]
20,< 40 µM,CCOC(=O)CN1CCN(c2ccc(/C=C3\C(=O)N(c4cccc(C(=O)O)c4)N=C3C)cc2)CC1 [Compound 446]
21,< 40 µM,CC1=NN(c2cccc(C(=O)O)c2)C(=O)/C1=C\c1cccs1 [Compound 508]
22,< 40 µM,CC(=O)OCc1ccc(/C=C2\C(=O)N(c3cccc(C(=O)O)c3)N=C2C)o1 [Compound 516]
23,< 10 µM,CC1=NN(c2cccc(C(=O)O)c2)C(=O)/C1=C\c1ccc(N2CCN(C(=O)c3cnoc3)CC2)cc1 [Compound 445]
24,10 to 20 µM,O=C(O)c1cccc(N2N=C(c3ccoc3)/C(=C/c3ccc(CO)o3)C2=O)c1 [Compound 488]
25,< 10 µM,CC1=NN(c2ccc(C(=O)N3CCC(CO)CC3)cc2)C(=O)/C1=C\c1ccc2[nH]ccc2c1 [Compound 361]
26,< 10 µM,CC1=NN(c2cccc(C(=O)O)c2)C(=O)/C1=C\c1ccc2cc[nH]c2c1 [Compound 381]
27,10 to 20 µM,COc1cc(/C=C2\C(=O)N(c3ccc(C(=O)O)cc3)N=C2c2ccc(OC)c(OC)c2)ccc1O [Compound 332]
28,< 10 µM,CC1=NN(c2cccc(C(=O)N3CCC(C(=O)O)CC3)c2)C(=O)/C1=C\c1ccc2[nH]ccc2c1 [Compound 374]
29,< 40 µM,COc1ccccc1-c1ccc(/C=C2\C(=O)N(c3cccc(C(=O)O)c3)N=C2C)o1 [Compound 487]
30,< 10 µM,CC1=NN(c2cccc(C(=O)N3CCC(CO)CC3)c2)C(=O)/C1=C\c1ccc2[nH]ccc2c1 [Compound 371]

# Continued, compound first:
row,Structure (SMILES),IC50
1,COc1cc(/C=C2\C(=O)N(c3ccc(C(=O)O)cc3)N=C2c2ccncc2)ccc1O [Compound 286],10 to 20 µM
2,COc1ccc(C2=NN(c3ccccc3)C(=O)C2=Cc2ccc(CO)o2)cc1OC [Compound 35],< 40 µM
3,CC1=NN(c2ccc(S(N)(=O)=O)cc2)C(=O)C1=Cc1c[nH]c2ccc(Cl)cc12 [Compound 146],< 10 µM
4,O=C(O)c1ccc(N2N=C(Cc3ccccc3)/C(=C/c3ccc(N4CCCC4)cc3)C2=O)cc1 [Compound 269],10 to 20 µM
5,COc1cc(C=C2C(=O)N(c3ccc(S(N)(=O)=O)cc3)N=C2C)ccc1OCC1CCCCC1 [Compound 161],< 40 µM
6,O=C1/C(=C\c2ccc(-n3cncn3)cc2)C(C2CC2)=NN1c1ccccc1 [Compound 80],< 40 µM
7,O=C1/C(=C\c2ccc(CO)o2)C(c2ccccn2)=NN1c1ccccc1 [Compound 48],< 40 µM
8,COc1cc(C=C2C(=O)N(c3ccc(C(C)(C)C)cc3)N=C2C)ccc1O [Compound 196],< 10 µM
9,COc1ccc(C2=NN(c3ccccc3)C(=O)/C2=C\c2ccc(CO)o2)cc1 [Compound 90],< 40 µM
10,O=C1/C(=C\c2ccc(CO)o2)C(c2ccncc2)=NN1c1ccccc1 [Compound 44],< 40 µM
11,O=C1/C(=C\c2ccc(CO)o2)C(C2CC2)=NN1c1ccccc1 [Compound 75],10 to 20 µM
12,CN1CCN(c2ccc(/C=C3\C(=O)N(c4ccccc4)N=C3C3CC3)cc2)CC1 [Compound 78],10 to 20 µM
13,COc1cc(/C=C2\C(=O)N(c3cccc(S(N)(=O)=O)c3)N=C2C)ccc1OS(=O)(=O)c1ccc(C)cc1 [Compound 203],10 to 20 µM
14,COc1cc(/C=C2\C(=O)N(c3ccccc3)N=C2c2ccncc2)ccc1O [Compound 40],< 40 µM
15,COC(=O)N1CCN(c2ccc(/C=C3\C(=O)N(c4ccccc4)N=C3C)cc2)CC1 [Compound 95],< 40 µM
16,O=C1/C(=C\c2ccc(-c3ccccc3F)o2)C(Cc2ccccc2)=NN1c1ccccc1 [Compound 26],< 40 µM
17,CC(C)(C)OC(=O)N1CCN(C(=O)C2=NN(c3ccccc3)C(=O)/C2=C\c2ccc(-c3ccccc3F)o2)CC1 [Compound 88],< 40 µM
18,O=C1/C(=C\c2ccc(-n3cncn3)cc2)C(Cc2ccccc2)=NN1c1ccccc1 [Compound 31],< 40 µM
19,COc1cc(/C=C2\C(=O)N(c3ccccc3)N=C2Cc2ccccc2)ccc1O [Compound 22],10 to 20 µM
20,CCCCC1=NN(c2ccccc2)C(=O)/C1=C\c1ccc(-n2cncn2)cc1 [Compound 59],10 to 20 µM
21,O=C(O)c1ccc(N2N=C(c3ccccn3)/C(=C/c3ccc4c(c3)OCCO4)C2=O)cc1 [Compound 292],10 to 20 µM
22,COC(=O)N1CCN(c2ccc(/C=C3\C(=O)N(c4ccccc4)N=C3c3cccnc3)cc2)CC1 [Compound 62],< 40 µM
23,CC1=NN(c2cccc(S(N)(=O)=O)c2)C(=O)/C1=C\c1ccc(N2CCN(c3ccccc3)CC2)cc1 [Compound 170],< 10 µM
24,O=C1/C(=C\c2ccc(-c3ccccc3F)o2)C(c2ccoc2)=NN1c1ccccc1 [Compound 15],< 10 µM
25,CC1=NN(c2ccc(S(N)(=O)=O)cc2)C(=O)/C1=C\c1ccc(N2CCC(CO)CC2)cc1 [Compound 171],10 to 20 µM
26,O=C(O)c1ccc(N2N=C(Cc3ccccc3)/C(=C/c3ccc(-n4cccn4)cc3)C2=O)cc1 [Compound 275],10 to 20 µM
